Columns and labels:
[1] = Selectivity index, ratio of CC50 for cytotoxicity against human cells over EC50 for antiviral activity against CHIKV 899 infected in African green monkey Vero cells; assay type: toxicity, cell-based; details: read-out: Ratio CC50/EC50
[2] = Cytotoxicity against human HEL cells measured after 3 days by coulter counting method; assay type: toxicity, cell-based; details: time 3 day
Chikungunya virus [3] = test: Antiviral activity against CHIKV 899 infected in African green monkey Vero cells measured after 7 days; assay type: functional, organism-based; details: Chikungunya virus, 899, Vero, 168 h
[4] = Lipophilicity, log P of the compound; assay type: physicochemical; details: octanol/water
Hepatitis C virus = test: Antiviral activity against HCV infected in human Huh-5-2 cells assessed as reduction in viral replication measured by Luciferase reporter gene assay; assay type: functional, organism-based, Hepacivirus hominis
Chikungunya virus [5] = test: Antiviral activity against CHIKV assessed as inhibition of viral replication; assay type: functional, organism-based

Compound | selectivity ratio [1] | CC50 at 72 h [2] [µM] | EC50 (Chikungunya virus [3]) [µM] | logP [4] | EC50 (Hepatitis C virus) [µM] | EC50 (Chikungunya virus [5]) [µM]
COc1ccc(CNc2nc(S)nc3ccccc23)cc1 | > 1 | > 336 | 329 |  |  | 
Sc1nc(Nc2ccncc2)c2ccccc2n1 | 1.1 | 242 | 220 |  |  | 
CC(C)(C)c1ccc2oc(=O)cc(CSc3nc(Nc4ccncc4)c4ccccc4n3)c2c1 | 8.8 | 17.3 | 1.96 | 3.93 |  | 
Cc1cccc(Nc2nc(SCc3cc(=O)oc4ccc(C(C)(C)C)cc34)nc3ccccc23)c1C | 10.8 | 150 | 13.9 | 5.04 | 16.6 | 
CC(C)(C)c1ccc2oc(=O)cc(CSc3nc(Nc4cccc5ccccc45)c4ccccc4n3)c2c1 |  |  | > 193 |  |  | 
COc1ccccc1Nc1nc(SCc2cc(=O)oc3ccc(C(C)(C)C)cc23)nc2ccccc12 | 16.8 | 51.9 | 3.08 | 4.76 |  | 
Cc1ccc(Nc2nc(S)nc3ccccc23)c(C)c1 | 2.4 | 142 | 59.4 |  |  | 
Sc1nc(Nc2cccc3ccccc23)c2ccccc2n1 | 7.4 | 118 | 16.1 |  |  | 
Cc1cc(C)nc(Nc2nc(S)nc3ccccc23)c1 |  |  | > 33.2 |  |  | 
Cc1cccc(Nc2nc(S)nc3ccccc23)c1C | 3.4 | 131 | 39.1 |  |  | 
CC(C)(C)c1ccc2oc(=O)cc(CSc3nc(Nc4ccccc4)c4ccccc4n3)c2c1 | 37.2 | 147 | 3.95 | 4.88 |  | 
Cc1ccc(Nc2nc(SCc3cc(=O)oc4ccc(C(C)(C)C)cc34)nc3ccccc23)c(C)c1 |  | 84.6 | 3.11 | 5.03 | 27.9 | 
COc1cc2oc(=O)cc(CSc3nc(Nc4ccccc4)c4ccccc4n3)c2cc1OC |  |  | > 212 |  |  | 
COc1ccccc1Nc1nc(S)nc2ccccc12 | 1.3 | 290 | 224 |  |  | 
Cc1ccc2oc(=O)cc(CSc3nc(Nc4ccccc4)c4ccccc4n3)c2c1 |  |  | > 47 |  |  | 
CC(C)(C)c1ccc2oc(=O)cc(CSc3nc(N(Cc4ccccc4)c4ccccc4)c4ccccc4n3)c2c1 |  |  | > 180 |  |  | 
O=c1cc(CSc2nc(Nc3ccccc3)c3ccccc3n2)c2ccc(O)cc2o1 |  |  | > 234 |  |  | 
Cc1cc(C)nc(Nc2nc(SCc3cc(=O)oc4ccc(C(C)(C)C)cc34)nc3ccccc23)c1 |  |  | > 151 |  |  | 
COc1ccc(CNc2nc(SCc3cc(=O)oc4ccc(C(C)(C)C)cc34)nc3ccccc23)cc1 | > 1.7 | > 147 | 85.3 |  |  | 
Sc1nc(Nc2ccccc2)c2ccccc2n1 | 2.5 | 275 | 108 |  |  | 
O=c1ccc2ccccc2o1 [COUMARIN] |  | > 500 |  |  | > 150 | 
Cc1ccc(C(=O)Nc2ccc(S(=O)(=O)O)c3cc(S(=O)(=O)O)cc(S(=O)(=O)O)c23)cc1NC(=O)c1cccc(NC(=O)Nc2cccc(C(=O)Nc3cc(C(=O)Nc4ccc(S(=O)(=O)O)c5cc(S(=O)(=O)O)cc(S(=O)(=O)O)c45)ccc3C)c2)c1 [SURAMIN] |  |  |  |  |  | 80
